Measurements as given in the supplement of paper PMC10307832.

Tests used:
Assay in all cases: relative viability (nuclei count vs DMSO), 5 days (fraction); higher = more cells survive
[1] = compound: CCN(CCO)CCCC(C)Nc1ccnc2cc(Cl)ccc12 [Hydroxychloroquine] + CC(C)C[C@H](NC(=O)[C@H](Cc1ccccc1)NC(=O)c1cnccn1)B(O)O [Bortezomib] (partner 0.002 µM)
Method in brief: (§1)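 Cells from lung cancer lines were seeded into 1536-well plates and, one day later, dosed by pin tool. Treatments were either a single drug or a fixed dose of an anchor drug with five library-drug doses (not always all listed) in √10 steps. After 5 days, nuclei were stained in a one-step fixation (final 0.05% Triton X-100, 1% formaldehyde, 1 ug/ml Hoechst) and counted on 4× images, and relative viability is the treated-to-vehicle nuclei ratio, as the median of duplicate plates.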

[2] = compound: CCN(CCO)CCCC(C)Nc1ccnc2cc(Cl)ccc12 [Hydroxychloroquine] + CC1(C)CCC(c2ccc(Cl)cc2)=C(CN2CCN(c3ccc(C(=O)NS(=O)(=O)c4ccc(N[C@H](CCN5CCOCC5)CSc5ccccc5)c(S(=O)(=O)C(F)(F)F)c4)cc3)CC2)C1 [Navitoclax] (partner 0.5 µM)
Method in brief: as §1

[3] = compound: CCN(CCO)CCCC(C)Nc1ccnc2cc(Cl)ccc12 [Hydroxychloroquine] + Cc1nc(Nc2ncc(C(=O)Nc3c(C)cccc3Cl)s2)cc(N2CCN(CCO)CC2)n1 [Dasatinib] (partner 0.075 µM)
Method in brief: as §1

[4] = compound: CCN(CCO)CCCC(C)Nc1ccnc2cc(Cl)ccc12 [Hydroxychloroquine] + CCNC(=O)c1noc(-c2cc(C(C)C)c(O)cc2O)c1-c1ccc(CN2CCOCC2)cc1 [Luminespib] (partner 0.01 µM)
Method in brief: as §1

Cell Line	relative viability ([1]; first compound 0.5 µM)	relative viability ([1]; first compound 1.581 µM)	relative viability ([1]; first compound 5 µM)	relative viability ([1]; first compound 50 µM)	relative viability ([2]; first compound 0.5 µM)	relative viability ([2]; first compound 1.581 µM)	relative viability ([2]; first compound 5 µM)	relative viability ([2]; first compound 15.81 µM)	relative viability ([2]; first compound 50 µM)	relative viability ([3]; first compound 0.5 µM)	relative viability ([3]; first compound 1.581 µM)	relative viability ([3]; first compound 5 µM)	relative viability ([3]; first compound 15.81 µM)	relative viability ([3]; first compound 50 µM)	relative viability ([4]; first compound 0.5 µM)	relative viability ([4]; first compound 1.581 µM)	relative viability ([4]; first compound 5 µM)	relative viability ([4]; first compound 15.81 µM)	relative viability ([4]; first compound 50 µM)	relative viability ([1]; first compound 15.81 µM)
NCI-H2347	0.979	0.911	0.931	0.878	0.784	0.81	0.689	0.851	0.702	0.281	0.149	0.325	0.281	0.274	0.308	0.342	0.531	0.729	0.361	
NCI-H2405	1.03	0.918	1.02	1.04	1.03	0.753	0.857	0.914	0.8	0.225	0.164	0.225	0.203	0.204	0.763	0.613	0.671	0.663	0.579	0.989
NCI-H3122	0.981	1.01	1.05	1.07	1.03	0.994	1.01	1.04	1.03	0.879	0.858	0.894	0.92	0.867	0.11	0.0839	0.104	0.109	0.0905	1.05
PC-3 [JPC-3]	0.787	0.841	0.812	0.94	0.851	0.776	0.83	0.67	0.85	0.94	0.873	0.971	1.21	1.16	0.762	0.711	0.745	0.686	0.774	0.694
